Source: patent EP4603105A1, “PHARMACEUTICAL COMPOSITION CONTAINING CYCLIC COMPOUND HAVING SELECTIVE KRAS INHIBITORY EFFECT AGAINST HRAS AND NRAS” (CHUGAI SEIYAKU KABUSHIKI KAISHA, priority 2022, dated 2024)
pIC50, pKd: −log10 of the molar value. Where a SMILES comes first, the peptide text is derived from it. Bridges are numbered along the chain shown (N, C = ends). [ ]: non-standard residue; d: D form. The star is where a group is joined. hPhe(3-Cl-4-CF3) = N[C@@H](CCc1ccc(C(F)(F)F)c(Cl)c1)C(=O)O; NPrPhe(4-CF3) = CCCN[C@@H](Cc1ccc(C(F)(F)F)cc1)C(=O)O; Morpholine(3S-CO) = O=C(O)[C@@H]1COCCN1; NMeGly(cPent) = CN[C@H](C(=O)O)C1CCCC1; Gly(cPent) = N[C@H](C(=O)O)C1CCCC1; NMeD = CN[C@@H](CC(=O)O)C(=O)O; NMeL = CN[C@@H](CC(C)C)C(=O)O; Morpholide = C1CN(*)CCO1; Ac5c = NC1(C(=O)O)CCCC1; Aze = O=C(O)[C@@H]1CCN1; Sar = CNCC(=O)O

Key:
[1] = molecular target: GDP-bound NRAS wild-type protein (Homo sapiens, UniProt P01111); assay: Binding to NRAS by surface plasmon resonance (SPR), KD and KD ratio to KRAS
How it was run: (§1)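 Single-cycle kinetics on GDP-loaded biotin-Avi RAS captured to ~100–300 RU; 75 s ascending injections, 100 µL/min, 30°C. HBS pH 7.4 + 10 mM MgCl2/10 µM GDP/4% DMSO. 1:1 fit, KD.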

[2] = molecular target: GDP-bound KRAS wild-type protein (Homo sapiens, UniProt P01116); assay: Binding to KRAS by surface plasmon resonance (SPR), dissociation constant KD
How it was run: as §1

[3] = system: human lung cancer strain NCI-H441; type: cell-based
How it was run: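 Proliferation was scored by […] measured after the reagent was added to cultures kept at 37°C in 5% carbon dioxide.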

HRAS wild-type protein = HRAS wild-type protein (Homo sapiens, UniProt P01112); assay: Binding to HRAS by surface plasmon resonance (SPR), KD and KD ratio to KRAS
How it was run: as §1

[4] = ratio of KD for GDP-bound NRAS wild-type protein to KD for KRAS
[5] = ratio of KD for HRAS wild-type protein to KD for KRAS
[6] = ratio of the KD value with respect to GDP-bound NRAS wild-type protein to the KD value with respect to KRAS
[7] = Single Cycle Kinetics, 1:1 binding model
[8] = ratio of the KD value with respect to HRAS wild-type protein to the KD value with respect to KRAS

Chain of HRAS wild-type protein (P01112 whole entry): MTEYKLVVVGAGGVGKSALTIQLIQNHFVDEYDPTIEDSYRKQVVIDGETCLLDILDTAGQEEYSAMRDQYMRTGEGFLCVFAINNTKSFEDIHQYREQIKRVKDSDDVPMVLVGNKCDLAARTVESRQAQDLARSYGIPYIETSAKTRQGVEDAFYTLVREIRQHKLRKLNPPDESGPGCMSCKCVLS
Chain of GDP-bound NRAS wild-type protein (P01111 whole entry): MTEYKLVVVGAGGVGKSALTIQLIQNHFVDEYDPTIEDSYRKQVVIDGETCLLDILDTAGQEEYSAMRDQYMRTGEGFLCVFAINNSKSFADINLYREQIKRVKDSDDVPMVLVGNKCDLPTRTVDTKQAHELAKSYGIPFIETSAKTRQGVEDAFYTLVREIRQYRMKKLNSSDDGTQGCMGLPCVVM
Chain of GDP-bound KRAS wild-type protein (P01116 1-188 isoform P01116-2): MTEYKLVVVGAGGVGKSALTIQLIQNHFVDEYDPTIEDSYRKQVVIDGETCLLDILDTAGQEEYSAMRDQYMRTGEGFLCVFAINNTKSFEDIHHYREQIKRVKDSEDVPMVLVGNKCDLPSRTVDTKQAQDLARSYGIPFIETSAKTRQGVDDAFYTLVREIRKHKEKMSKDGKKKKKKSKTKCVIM

Row | pKd ([2]; 1:1 binding model) | pIC50 [3] | pKd ([2]; Single Cycle Kinetics) | pKd [2, 7] | Compound | NRAS /KRAS [1, 4] | HRAS /KRAS (HRAS wild-type protein; [5]) | NRAS /KRAS [1, 6] | HRAS /KRAS (HRAS wild-type protein; [8])
1 | 8.92 | 6.85 |  |  | CCCN1C(=O)CN(C)C(=O)[C@@H]2CCN2C(=O)[C@H](C2CCCC2)NC(=O)[C@H](CC(C)C)N(C)C(=O)C[C@@H](C(=O)N2CCOCC2)N(C)C(=O)[C@H](C2CCCC2)N(C)C(=O)C2(CCCC2)NC(=O)[C@@H]2CCCN2C(=O)[C@H](CCc2ccc(C(F)(F)F)c(Cl)c2)NC(=O)CN(C)C(=O)[C@@H]1Cc1ccc(C(F)(F)F)cc1 [PP0306] ([NMeL][Gly(cPent)][Aze][Sar][NPrPhe(4-CF3)][Sar][hPhe(3-Cl-4-CF3)]P[Ac5c][NMeGly(cPent)][NMeD]-Morpholide; lactam N-11) | B (a compound having 3 or more and less than 10 is denoted as B) | B (a compound having 3 or more and less than 10 is denoted as B) |  | 
2 |  | 7.61 | 9.80 |  | CCO[C@@H]1C[C@H]2C(=O)NC3(CCC3)C(=O)N(C)[C@@H](C3CCCC3)C(=O)N(C)[C@H](C(=O)N(C)C)CC(=O)N(C)[C@@H](CC)C(=O)N[C@@H]([C@@H](C)CC)C(=O)N(C)CC(=O)N(C)[C@H]3CCCCCN(C3=O)[C@@H](Cc3ccc(F)c(F)c3)C(=O)N(C)CC(=O)N[C@@H](CCc3cc(F)c(C(F)(F)F)c(F)c3)C(=O)N2C1 [PP0907] | B (a compound having 3 or more and less than 10 is denoted as B) | B (a compound having 3 or more and less than 10 is denoted as B) |  | 
3 |  | 7.66 |  | 9.55 | CCCOC[C@H]1C(=O)N[C@@H]([C@@H](C)CC)C(=O)N(C)CC(=O)N(C)[C@H]2C/C=C\CCN(C2=O)[C@@H](Cc2ccc(C)cc2)C(=O)N(C)CC(=O)N[C@@H](CCc2ccc(C(F)(F)F)c(Cl)c2)C(=O)N2C[C@H](CC)C[C@H]2C(=O)NC2(CC(C)(C)C2)C(=O)N(C)[C@@H](C2CCCC2)C(=O)N(C)[C@H](C(=O)N(C)C)CC(=O)N1C [PP2235] |  |  | A (a compound having 10 or more and less than 20 is denoted as A) | A (a compound having 10 or more and less than 20 is denoted as A)
4 | 8.66 | 7.25 |  |  | CCCN1C(=O)CN(C)C(=O)[C@@H]2CCN2C(=O)[C@H]([C@@H](C)CC)NC(=O)[C@H](CC(C)C)N(C)C(=O)C[C@@H](C(=O)N2CCOCC2)N(C)C(=O)[C@H](C2CCCC2)N(C)C(=O)C2(CCCC2)NC(=O)[C@@H]2COCCN2C(=O)[C@H](CCc2ccc(C(F)(F)F)c(Cl)c2)NC(=O)CN(C)C(=O)[C@@H]1Cc1ccc(C(F)(F)F)cc1 [PP0313] ([NMeL]I[Aze][Sar][NPrPhe(4-CF3)][Sar][hPhe(3-Cl-4-CF3)][Morpholine(3S-CO)][Ac5c][NMeGly(cPent)][NMeD]-Morpholide; lactam N-11) | B (a compound having 3 or more and less than 10 is denoted as B) | C (A compound having a KD ratio of 0.1 or more and less than 3 is denoted as C) |  | 
5 |  | 7.41 | 9.72 |  | CCO[C@@H]1C[C@H]2C(=O)NC3(CCC3)C(=O)N(C)[C@@H](C3CCCC3)C(=O)N(C)[C@H](C(=O)N(C)C)CC(=O)N(C)[C@@H](CC)C(=O)N[C@@H]([C@@H](C)CC)C(=O)N(C)CC(=O)N(C)[C@H]3CCCCCN(C3=O)[C@@H](Cc3ccc(F)cc3Cl)C(=O)N(C)CC(=O)N[C@@H](CCc3cc(F)c(C(F)(F)F)c(F)c3)C(=O)N2C1 [PP0908] | B (a compound having 3 or more and less than 10 is denoted as B) | B (a compound having 3 or more and less than 10 is denoted as B) |  | 
6 |  | 8.05 |  | 9.48 | CCOC[C@H]1C(=O)N[C@@H]([C@@H](C)CC)C(=O)N(C2CC2)CC(=O)N(C)[C@H]2C/C=C\CCN(C2=O)[C@@H](Cc2ccc(C(F)(F)F)cc2)C(=O)N(C)CC(=O)N[C@@H](CCc2ccc(C(F)(F)F)c(OC)c2)C(=O)N2C[C@H](OCC)C[C@H]2C(=O)N(C)C2(CCC2)C(=O)N(C)[C@@H](C(CC)CC)C(=O)N(C)[C@H](C(=O)N(C)C)CC(=O)N1C [PP2315] |  |  | A (a compound having 10 or more and less than 20 is denoted as A) | A (a compound having 10 or more and less than 20 is denoted as A)
7 | 8.62 | 7.12 |  |  | CCO[C@@H]1C[C@H]2C(=O)NC3(CC(C)(C)C3)C(=O)N(C)[C@@H](C3CCCC3)C(=O)N(C)[C@H](C(=O)N(C)CC)CC(=O)N(C)[C@@H](CC(C)C)C(=O)N[C@@H]([C@@H](C)CC)C(=O)N(C)CC(=O)N(C)[C@H]3C/C=C\CCN(C3=O)[C@@H](Cc3ccc(C(F)F)cc3)C(=O)N(C)CC(=O)N[C@@H](CCc3cc(C)c(C4CC4)c(C)c3)C(=O)N2C1 [PP3148] | A (a compound having 10 or more and less than 20 is denoted as A) | A (a compound having 10 or more and less than 20 is denoted as A) |  | 
8 | 9.48 | 6.09 |  |  | CC[C@H](C)[C@@H]1NC(=O)[C@H](COC)N(C)C(=O)C[C@@H](C(=O)N(C)C)N(C)C(=O)[C@H](C2CCCC2)N(C)C(=O)C2(CC(C)(C)C2)NC(=O)CNC(=O)[C@H](CCc2ccc(C(F)(F)F)c(Cl)c2)NC(=O)CN(C)C(=O)[C@H](Cc2ccc(C(F)(F)F)cc2)N2CC/C=C\C[C@@H](C2=O)N(C)C(=O)CN(C)C1=O [PP3134] | AA (a compound having 20 or more is denoted as AA) | A (a compound having 10 or more and less than 20 is denoted as A) |  | 
